Blank lines part the entries; values can stand above or below the molecule they belong to.
How the values were obtained:
[1] = molecular target: T1, mitochondrial glycerophosphate dehydrogenase (mGPDH) (Rattus norvegicus, UniProt P35571); assay: mGPDH activity (glycerophosphate:CoQ1 oxidoreductase) in BAT mitochondria; type: biochemical
T1 construct: from tissue; host or cells: mitochondria isolated from rat interscapular brown adipose tissue
T1 sequence (P35571 43-727): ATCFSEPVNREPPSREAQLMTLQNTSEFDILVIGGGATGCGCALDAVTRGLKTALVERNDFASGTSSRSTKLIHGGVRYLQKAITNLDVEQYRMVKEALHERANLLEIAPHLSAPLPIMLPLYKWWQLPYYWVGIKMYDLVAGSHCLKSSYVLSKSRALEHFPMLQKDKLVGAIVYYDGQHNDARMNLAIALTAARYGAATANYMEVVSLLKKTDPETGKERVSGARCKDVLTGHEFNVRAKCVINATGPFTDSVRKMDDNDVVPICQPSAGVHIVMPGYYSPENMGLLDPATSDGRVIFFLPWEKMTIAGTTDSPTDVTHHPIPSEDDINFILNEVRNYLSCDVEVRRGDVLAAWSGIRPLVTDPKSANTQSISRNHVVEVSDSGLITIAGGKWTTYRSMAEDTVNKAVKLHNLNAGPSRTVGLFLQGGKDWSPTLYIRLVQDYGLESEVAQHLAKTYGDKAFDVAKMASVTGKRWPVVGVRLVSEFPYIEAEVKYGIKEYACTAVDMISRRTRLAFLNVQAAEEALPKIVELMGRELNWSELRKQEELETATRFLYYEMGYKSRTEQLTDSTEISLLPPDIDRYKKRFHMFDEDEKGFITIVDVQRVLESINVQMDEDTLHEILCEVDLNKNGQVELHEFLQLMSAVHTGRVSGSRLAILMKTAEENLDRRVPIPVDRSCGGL
Description: (§1) We used interscapular brown adipose tissue (BAT) of four-week-old Wistar rats kept at 22°C under 12 h/12 h light/dark cycle on a standard diet and water supply ad libitum. All animal works were approved by the institutional ethics committee and were in accordance with the EU Directive 2010/63/EU for animal experiments. Mitochondria were isolated in STE medium (250 mM sucrose, 10 mM Tris–HCl, 1 mM EDTA, pH 7.4) and supplemented with BSA (10 mg/mL) by differential centrifugation. Quality of isolation was routinely checked by oxygraph, and fresh mitochondria were used for measurements of oxygen consumption and hydrogen peroxide production. Subsequently, frozen-thawed mitochondria were used for determination of enzymatic activities; as in such preparations, the integrity of mitochondrial membrane is disrupted and NADH has therefore access to the oxidation site of NDH. […]
(§2) Activities of mitochondrial dehydrogenases were determined spectrophotometrically as NADH oxidoreductases (NDH, monitored at 340 nm, ε340 = 6.22 mM^−1·cm^−1) or CoQ1 oxidoreductases (SDH and mGPDH, monitored at 275 nm, ε275 = 13.6 mM^−1·cm^−1). […] The reaction was started by adding 100 μM NADH, 25 mM glycerophosphate (GP), or 25 mM succinate, respectively, and after 5–10 minutes, changes of absorbance were monitored at 30°C. Enzyme activities were expressed as pmol/s/mg protein.

[2] = tested on: H2O2 (ROS) production of BAT mitochondria; assay: Fluorometric detection of hydrogen peroxide production (Amplex UltraRed) in fresh BAT mitochondria; type: biochemical, rat; conditions: for ROS production on titration, all substrates tested: metformin 0–200 mM or phenformin 0–60 mM, pattern highly similar for all substrates
Description: (§3) We used interscapular brown adipose tissue (BAT) of four-week-old Wistar rats kept at 22°C under 12 h/12 h light/dark cycle on a standard diet and water supply ad libitum. All animal works were approved by the institutional ethics committee and were in accordance with the EU Directive 2010/63/EU for animal experiments. Mitochondria were isolated in STE medium (250 mM sucrose, 10 mM Tris–HCl, 1 mM EDTA, pH 7.4) and supplemented with BSA (10 mg/mL) by differential centrifugation. Quality of isolation was routinely checked by oxygraph, and fresh mitochondria were used for measurements of oxygen consumption and hydrogen peroxide production. Subsequently, frozen-thawed mitochondria were used for determination of enzymatic activities; as in such preparations, the integrity of mitochondrial membrane is disrupted and NADH has therefore access to the oxidation site of NDH. Also, freezing/thawing ensures that the membrane potential is not maintained.
Hydrogen peroxide production was determined fluorometrically by measuring oxidation of Amplex UltraRed (Thermo Fisher) essentially as before. Fluorescence of the Amplex UltraRed oxidation product was measured at 37°C using Tecan Infinite M200 multiwell fluorometer. Excitation/emission wavelengths were 544 nm (bandwidth 15 nm)/590 nm (bandwidth 30 nm). The assay was performed with 10 μg of mitochondrial protein in KCl-based medium (120 mM KCl, 3 mM HEPES, 5 mM KH2PO4, 3 mM MgSO4, 1 mM EGTA, 3 mg/mL BSA, pH 7.2) supplemented either with 10 mM pyruvate plus 2 mM malate, 10 mM succinate, or 10 mM GP. Amplex UltraRed was used at the final concentration of 50 μM with horseradish peroxidase (HRP) at 1 U/mL. Fluorescence signal from the well containing all substrates and inhibitors, but not mitochondria, was subtracted as a background for every experimental condition used. Background, caused mostly by autoxidation of the dye or nonenzymatic effect of inhibitors on apparent ROS production, varied between conditions from 0 to 1 pmol/s/mg and was uniform across respective titration points. Signal was calibrated using H2O2 at the final concentration of 0–5 μM, and H2O2 stock concentration was routinely checked by measuring its absorption at 240 nm.

[3] = molecular target: T2, succinate dehydrogenase (SDH) (Rattus norvegicus, UniProt P21913+Q641Z9+Q6PCT8+Q920L2); assay: SDH activity (succinate:CoQ1 oxidoreductase / succinate respiration) in BAT mitochondria; type: biochemical
T2 construct: from tissue; host or cells: mitochondria isolated from rat interscapular brown adipose tissue
T2 sequence (Q920L2 35-656): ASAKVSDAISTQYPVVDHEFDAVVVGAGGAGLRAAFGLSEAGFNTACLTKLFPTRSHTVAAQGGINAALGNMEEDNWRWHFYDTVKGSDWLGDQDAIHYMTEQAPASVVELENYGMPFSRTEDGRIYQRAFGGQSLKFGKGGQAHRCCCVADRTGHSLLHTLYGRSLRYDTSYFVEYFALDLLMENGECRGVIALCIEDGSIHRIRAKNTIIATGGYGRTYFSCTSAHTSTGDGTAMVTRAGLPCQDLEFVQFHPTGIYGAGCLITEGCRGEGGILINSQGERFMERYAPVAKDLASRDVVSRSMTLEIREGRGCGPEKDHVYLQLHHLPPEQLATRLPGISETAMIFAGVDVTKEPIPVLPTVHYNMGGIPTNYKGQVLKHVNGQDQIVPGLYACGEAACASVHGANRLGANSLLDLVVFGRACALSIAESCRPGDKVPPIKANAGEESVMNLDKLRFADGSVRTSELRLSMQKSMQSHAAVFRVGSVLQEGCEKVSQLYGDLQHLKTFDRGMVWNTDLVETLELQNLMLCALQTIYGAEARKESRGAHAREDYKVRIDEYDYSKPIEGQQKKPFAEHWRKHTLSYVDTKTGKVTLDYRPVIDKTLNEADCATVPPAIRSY
T2 sequence (P21913 31-282): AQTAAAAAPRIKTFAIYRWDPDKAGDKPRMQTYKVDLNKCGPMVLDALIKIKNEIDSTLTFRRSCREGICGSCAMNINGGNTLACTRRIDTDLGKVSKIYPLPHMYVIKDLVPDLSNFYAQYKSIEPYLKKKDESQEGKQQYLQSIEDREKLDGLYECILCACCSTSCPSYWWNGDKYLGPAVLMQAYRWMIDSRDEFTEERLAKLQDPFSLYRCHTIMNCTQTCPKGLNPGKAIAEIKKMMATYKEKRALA
T2 sequence (Q641Z9 30-169 limits assumed): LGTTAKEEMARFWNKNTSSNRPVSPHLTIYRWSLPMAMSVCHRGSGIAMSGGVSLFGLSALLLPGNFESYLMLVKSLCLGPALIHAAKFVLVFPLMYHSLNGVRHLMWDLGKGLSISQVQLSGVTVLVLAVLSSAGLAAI
T2 sequence (Q6PCT8 57-159): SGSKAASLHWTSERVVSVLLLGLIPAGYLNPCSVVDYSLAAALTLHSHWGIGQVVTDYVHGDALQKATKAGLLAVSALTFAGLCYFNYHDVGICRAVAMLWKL
Description: as §1, with “production.” for “production. Subsequently, frozen-thawed mitochondria were used for determination of enzymatic activities; as in such preparations, the integrity of mitochondrial membrane is disrupted and NADH has therefore access to the oxidation site of NDH.”
as §2
Oxygen consumption was measured at 30°C as described before using Oxygraph-2k (Oroboros, Austria). […]

[4] = tested on: NADH dehydrogenase (complex I, NDH); assay: NDH enzyme activity (NADH oxidoreductase) in BAT mitochondria; type: biochemical, rat
Description: as §1, §2

[5] = molecular target: respiratory chain dehydrogenases NDH, SDH, and mGPDH; assay: Enzyme activity assays of mitochondrial dehydrogenases in frozen-thawed BAT mitochondria (spectrophotometry); type: biochemical, rat; conditions: isolated BAT mitochondria, range over all three enzymes, read-out: IC50, inhibition of respiratory chain dehydrogenase enzyme activities (NDH, SDH, mGPDH)
Description: as §1, §2

[6] = tested on: respiration of BAT mitochondria (pyruvate plus malate, succinate, glycerophosphate); assay: Polarographic oxygen consumption of isolated BAT mitochondria with substrates of NDH, SDH and mGPDH; type: biochemical, rat; conditions: at the same concentrations as enzyme inhibition (IC50 80 to 180 mM)
Description: as §3
(§4) Oxygen consumption was measured at 30°C as described before using Oxygraph-2k (Oroboros, Austria). Measurements were performed in 2 mL of KCl medium (80 mM KCl, 10 mM Tris–HCl, 3 mM MgCl2, 1 mM EDTA, 5 mM K-Pi, pH 7.4) using 15–60 μg protein/mL of freshly isolated mitochondria. For measurements, 10 mM pyruvate plus 2 mM malate, 10 mM succinate, or 10 mM GP, respectively, were used. The oxygen consumption was expressed in pmol oxygen/s/mg protein.

[7] = reported values; cited from earlier work
[8] = tested on: treated patients; conditions: cited from earlier work
[9] = tested on: pyruvate plus malate-supported oxygen consumption (NDH); assay: Pyruvate plus malate-supported oxygen consumption of BAT mitochondria; type: biochemical, rat
Description: as §3, §4

- Concentration at which activity of mGPDH was abolished [1]: 50 µM
- IC50 ([3]; enzyme activity and oxygen consumption, 10 mM succinate (Figures 4(b) and 4(d)), read-out: IC50, nonspecific action on SDH): ~80 µM
SMILES: O=C(O)CCC(=O)Nc1ccc(-c2nc3ccccc3[nH]2)cc1 [iGP-1]
- GP-dependent ROS production ([2]; 10 mM glycerophosphate, 100 μM iGP-1): inhibited

SMILES: COc1[nH]c(=O)c(C(=O)[C@@H](C)C[C@H](C)[C@@H](Cl)CCl)c(O)c1OC [atpenin A5]
- ROS production with low levels of succinate ([2]; 0.4 mM succinate, 0.5 μM atpenin A5): pronounced increase in ROS production
- Concentration of complete inhibition of SDH ([3]; succinate as a substrate): 20 nM

- IC50 [5]: > 80000 µM
SMILES: CN(C)C(=N)N=C(N)N [metformin, dimethyl biguanide]
- Sensitivity of NDH activity to inhibitory action relative to SDH and mGPDH ([4]; metformin titration 0–200 mM, 100 μM NADH): most sensitive
- Effect on respiration with pyruvate and malate, succinate and glycerophosphate [6]: inhibited respiration
- ROS production on titration, all substrates tested [2]: dose-dependent increase in ROS production
- Concentration inside tumors [7]: 1000 to 10000 nM

SMILES: [H]/N=C(/N)N/C(=N/[H])NCCc1ccccc1 [phenformin]
- ROS production on titration, all substrates tested [2]: dose-dependent increase in ROS production
- Adverse effect leading to discontinued use [8]: induction of lactic acidosis

SMILES: C=C(C)[C@H]1Cc2c(ccc3c2O[C@@H]2COc4cc(OC)c(OC)cc4[C@@H]2C3=O)O1 [rotenone]
- Concentration of complete inhibition of complex I enzyme activity ([4]; BAT mitochondria): 500 nM
- Concentration of complete inhibition of pyruvate plus malate-supported oxygen consumption [9]: 500 nM
- Rate of H2O2 production with NADH-linked substrates ([2]; 10 mM pyruvate and 2 mM malate, 1 μM rotenone): increased the rate of H2O2 production

Reference: publication PMC5569935, “Pleiotropic Effects of Biguanides on Mitochondrial Reactive Oxygen Species Production” (Oxidative Medicine and Cellular Longevity, 2017)
